Each structure is given as a SMILES string. A value given as a limit tells only on which side of the number the result lay.

Assay [1] deals with Beta-2 adrenergic receptor (Homo sapiens, UniProt P07550).
Description: Displacement of [3H]CGP12177 from human beta2 adrenoceptor
Assay [2] addresses Beta-1 adrenergic receptor (Homo sapiens, UniProt P08588).
Description: Displacement of [3H]CGP12177 from human beta-1 adrenoceptor
Assay [3] can be described thus: Agonist activity at beta 1 adrenoceptor in electrically-stimulated guinea pig left atrium at 1 uM. The format is functional, Cavia porcellus, Cardiac atrium.

Sequence of Beta-2 adrenergic receptor (P07550 whole entry): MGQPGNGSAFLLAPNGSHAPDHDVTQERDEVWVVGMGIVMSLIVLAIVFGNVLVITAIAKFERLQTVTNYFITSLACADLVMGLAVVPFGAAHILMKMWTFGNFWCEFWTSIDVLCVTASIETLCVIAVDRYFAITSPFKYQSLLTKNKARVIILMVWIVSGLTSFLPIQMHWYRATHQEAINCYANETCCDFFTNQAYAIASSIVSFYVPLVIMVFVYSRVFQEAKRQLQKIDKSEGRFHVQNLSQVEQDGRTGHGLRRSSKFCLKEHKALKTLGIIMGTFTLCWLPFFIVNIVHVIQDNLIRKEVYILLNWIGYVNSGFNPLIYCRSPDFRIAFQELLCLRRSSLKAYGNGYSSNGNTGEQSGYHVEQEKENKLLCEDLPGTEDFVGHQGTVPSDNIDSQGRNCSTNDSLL
Sequence of Beta-1 adrenergic receptor (P08588 whole entry): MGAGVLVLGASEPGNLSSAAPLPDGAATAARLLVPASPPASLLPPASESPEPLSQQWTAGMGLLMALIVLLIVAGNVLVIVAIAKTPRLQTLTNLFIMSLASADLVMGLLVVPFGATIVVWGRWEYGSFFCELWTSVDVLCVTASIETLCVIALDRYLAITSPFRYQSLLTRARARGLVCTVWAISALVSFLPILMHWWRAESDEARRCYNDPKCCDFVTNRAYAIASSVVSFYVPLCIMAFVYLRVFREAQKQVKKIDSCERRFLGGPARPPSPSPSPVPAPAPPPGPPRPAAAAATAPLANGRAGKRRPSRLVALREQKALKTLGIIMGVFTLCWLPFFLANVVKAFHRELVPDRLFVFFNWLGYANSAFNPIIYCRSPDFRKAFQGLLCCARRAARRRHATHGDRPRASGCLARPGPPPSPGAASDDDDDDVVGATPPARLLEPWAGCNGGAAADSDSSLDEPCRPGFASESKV

The term Ki denotes a dissociation constant, usually derived from enzyme kinetics or from competition with a known ligand. Low values mean tighter binding, high ones weaker binding. For `CCC(CC)CNC[C@H](O)c1ccc(O)c2[nH]c(=O)sc12`, the Ki was determined as 24.7 nM in assay [1] and 169 nM in assay [2].
On to `C[C@@H](NC[C@H](O)c1ccc(O)c2[nH]c(=O)sc12)C1CCCCC1`, for which the Ki in assay [1] amounted to 1 nM; in assay [2], 1.5 nM. For the same compound, in assay [3], the Activity is reported as 69%.
`C[C@H](NC[C@H](O)c1ccc(O)c2[nH]c(=O)sc12)C1CCCCC1`: the results for the Ki in assay [1] and in assay [2] were 25.1 nM and 39.3 nM, respectively.
On to `CC(C)(C)CC(C)(C)NC[C@H](O)c1ccc(O)c2[nH]c(=O)sc12`, for which the figures for the Ki in assay [1] and in assay [2] were 1.9 nM and 9.2 nM, respectively.
In the case of `O=c1[nH]c2c(O)ccc([C@@H](O)CNCC34CC5CC(CC(C5)C3)C4)c2s1`, the Ki in assay [1] turned out to be 26.5 nM; in assay [2], 35.4 nM.
Turning to `O=c1[nH]c2c(O)ccc([C@@H](O)CNCCc3ccccc3)c2s1`, the inhibitory constant (Ki) in assay [1] was found to be 1.8 nM; in assay [2] it was 3.8 nM.
As to `Cc1onc(-c2ccccc2)c1CNC[C@H](O)c1ccc(O)c2[nH]c(=O)sc12`, the results for the inhibitory constant (Ki) in assay [1] and in assay [2] were 19.8 nM and 902 nM, respectively. In assay [3], this compound gave an Activity of 19%.
On to `O=c1[nH]c2c(O)ccc([C@@H](O)CNCCCc3ccccc3)c2s1`, for which the Ki in assay [1] worked out at 1.2 nM; in assay [2] it was 2 nM.
In the same order, the values of `CC(C)(Cc1ccccc1)NC[C@H](O)c1ccc(O)c2[nH]c(=O)sc12` are 0.4 nM and 1.8 nM.
As for `O=c1[nH]c2c(O)ccc([C@@H](O)CN[C@@H]3CCCc4ccccc43)c2s1`, the Ki in assay [1] is 9.4 nM; in assay [2], 112 nM.
On to `O=c1[nH]c2c(O)ccc([C@@H](O)CN[C@H]3CCCc4ccccc43)c2s1`, for which the Ki in assay [1] worked out at 30.2 nM; in assay [2] it was 58.2 nM.
For the compound `O=c1[nH]c2c(O)ccc([C@@H](O)CNCCCCc3ccccc3)c2s1`, the inhibition constant Ki in assay [1] is 1.8 nM; in assay [2], 15 nM.
Regarding `C[C@@H](NC[C@H](O)c1ccc(O)c2[nH]c(=O)sc12)c1ccc2ccccc2c1`, the inhibitory constant (Ki) worked out at 2.7 nM in assay [1] and 1.4 nM in assay [2].
With `C[C@H](NC[C@H](O)c1ccc(O)c2[nH]c(=O)sc12)c1ccc2ccccc2c1`, the Ki in assay [1] is 48.9 nM; in assay [2], 33.7 nM.
In the same order, the values of `O=c1[nH]c2c(O)ccc([C@@H](O)CNC3CCCCCC3)c2s1` are 11.8 nM and 78.8 nM.
Regarding `O=c1[nH]c2c(O)ccc([C@@H](O)CN[C@@H]3CCCC[C@H]3OCc3ccccc3)c2s1`, the Ki in assay [1] was 7.2 nM; in assay [2], 40.4 nM. Further, the Activity in assay [3] is 13%.
For `O=c1[nH]c2c(O)ccc([C@@H](O)CN[C@H]3CCCC[C@@H]3OCc3ccccc3)c2s1`, the Ki in assay [1] was 362 nM; in assay [2], 1060 nM.
Consider `CC1(C)[C@@H]2CC[C@]1(C)[C@@H](NC[C@H](O)c1ccc(O)c3[nH]c(=O)sc13)C2`, for which the values for the inhibition constant (Ki) in assay [1] and in assay [2] were 40.4 nM and 1510 nM, respectively.
As for `CC1(C)[C@@H]2CC[C@@]1(C)[C@@H](NC[C@H](O)c1ccc(O)c3[nH]c(=O)sc13)C2`, the inhibition constant (Ki) in assay [1] came out at 3.8 nM; in assay [2], 450 nM.
Turning to `O=c1[nH]c2c(O)ccc([C@@H](O)CNC3CCCCC3C3CCCCC3)c2s1` (some centres not stated), the Ki in assay [1] amounted to 151 nM; in assay [2] it was 662 nM.
In the same order, the values of `O=c1[nH]c2c(O)ccc([C@@H](O)CNC3CCN(CCN4CCCCCC4)CC3)c2s1` are 6.3 nM and 187 nM.
Regarding `O=c1[nH]c2c(O)ccc([C@@H](O)CNCCOc3ccccc3)c2s1`, the figures for the inhibitory constant (Ki) in assay [1] and in assay [2] were 4.4 nM and 17.8 nM, respectively.
Turning to `CN(CCCNC[C@H](O)c1ccc(O)c2[nH]c(=O)sc12)c1ccccc1`, the Ki in assay [1] amounted to 0.3 nM; in assay [2] it was 8.4 nM.
In the same order, the values of `O=C(NC1CCCCC1)[C@H](Cc1ccccc1)NC[C@H](O)c1ccc(O)c2[nH]c(=O)sc12` are over 1000 nM and over 1000 nM.
In the same order, the values of `O=c1[nH]c2c(O)ccc([C@@H](O)CNCCSc3ccc(Cl)cc3)c2s1` are 3 nM and 1.7 nM.
In the same order, the values of `CCCCN(CCCC)CCNC[C@H](O)c1ccc(O)c2[nH]c(=O)sc12` are 18.3 nM and 31.3 nM.
Regarding `CNCC(O)c1ccc(O)c2nc(O)sc12` (configuration not stated), the values for the inhibitory constant (Ki) in assay [1] and in assay [2] were 5 nM and 60.6 nM, respectively.
